Columns and labels:
glioma cells = details: cited from earlier work
[1] = cited from earlier work
one or more cancers = details: cyclophosphamide only
Description: One or more patients are identified who have one or more cancers selected from lung carcinoma, prostate cancer, gliaoblastoma multiform, hormone refractory prostate cancer, solid tumor malignancies such as colon carcinoma, non-small cell lung cancer (NSCLC), anaplastic astrocytoma, bladder carcinoma, sarcoma, ovarian carcinoma, rectal hemangiopericytoma, pancreatic carcinoma, advanced cancer, cancer of large bowel, stomach, pancreas, ovaries, melanoma pancreatic cancer, colon cancer, and bladder cancer.
The one or more patients are administered a formulation comprising cyclophosphamide only. […] On the day of the next administration and prior to the administration, as assessment of the outcome of treatment until that point is conducted and compared to all previous assessments.
Patients are then administered a combination of cyclophosphamide and quercetin and SPB. […] An assessment of the outcome of treatment is periodically made.

SMILES	angiogenesis in glioma cells (glioma cells)	water solubility [1]	response of the cancers following the initial response period (one or more cancers)
O=c1c(O)c(-c2ccc(O)c(O)c2)oc2cc(O)cc(O)c12 [Quercetin, quercetin]	suppression of angiogenesis	not water soluble	
O=P1(N(CCCl)CCCl)NCCCO1 (stereo not drawn) [cyclophosphamide]			become resistant

Source: patent US11890292B2, “Compositions, methods, systems and/or kits for preventing and/or treating neoplasms” (Research Cancer Institute of America, priority 2017, dated 2024)
